Legend:
NUAK1 = biological target: T1, NUAK1 (Homo sapiens, UniProt O60285); assay: NUAK1 CETSA; type: cell-based; parameters: endogenous in cells; host or cells: MDA-MB-231 (lysates and intact cells)
T1 sequence (O60285 1-661): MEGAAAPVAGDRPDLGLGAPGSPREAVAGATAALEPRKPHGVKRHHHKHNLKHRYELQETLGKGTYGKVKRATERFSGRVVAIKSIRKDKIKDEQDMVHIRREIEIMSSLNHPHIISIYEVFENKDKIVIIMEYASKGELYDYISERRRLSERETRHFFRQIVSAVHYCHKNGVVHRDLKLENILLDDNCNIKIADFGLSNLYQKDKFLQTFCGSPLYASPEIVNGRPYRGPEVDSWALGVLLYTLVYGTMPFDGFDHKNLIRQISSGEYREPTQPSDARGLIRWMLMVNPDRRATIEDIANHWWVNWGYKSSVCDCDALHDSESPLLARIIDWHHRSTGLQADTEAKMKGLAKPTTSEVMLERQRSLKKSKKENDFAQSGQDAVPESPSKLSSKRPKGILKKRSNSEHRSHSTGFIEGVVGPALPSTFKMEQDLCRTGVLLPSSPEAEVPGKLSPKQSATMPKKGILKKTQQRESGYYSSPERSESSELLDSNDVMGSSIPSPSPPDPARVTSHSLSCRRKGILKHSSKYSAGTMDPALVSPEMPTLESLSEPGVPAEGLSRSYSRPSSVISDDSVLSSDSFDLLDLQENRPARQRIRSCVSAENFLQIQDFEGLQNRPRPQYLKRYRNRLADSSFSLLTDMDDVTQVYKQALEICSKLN
Protocol: (§1) Following treatment, cell lysates were thermally treated in a thermal gradient profile across a temperature range. Following the thermal shift, cell lysates were spun by centrifuge to pellet aggregate protein and the supernatant withdrawn. The supernatant was then denatured in buffer and heated to denature, reduce, and alkylate the supernatant proteins. Following heating and cooling to room temperature, cold acetone was added to the supernatant samples and proteins precipitated.
TNBC MDA-MB-231 cells were grown at 37° C. in 5% CO2 and suspended in warm media and split into 4 equal volumes. […] Cells were incubated and then pelleted. Following pelleting, the cells were washed, resuspended, and heated in a thermal gradient. Following heating, the samples were flash frozen and lysed in lysis buffer, agitated by vortex, and sonicated prior to centrifugation. The supernatant was collected and denaturation buffer added. Cold acetone was then added to the cell samples, and protein collected by centrifugation. […]
(§2) The intact cell protein samples and lysate protein samples were then digested and labeled for mass spectrometry analysis according to the manufacturer's recommended protocols. Digested and labeled protein samples were analyzed by mass spectrometry proteomic analysis and the resulting protein targets were analyzed and plotted.

STK17A = biological target: T2, STK17A (Homo sapiens, UniProt Q9UEE5); assay: CETSA-MS, MDA-MB-231 cell lysates; type: binding; conditions: 2 μM and 20 μM
T2 construct: endogenous in cells; host or cells: MDA-MB-231
T2 sequence (Q9UEE5 whole entry): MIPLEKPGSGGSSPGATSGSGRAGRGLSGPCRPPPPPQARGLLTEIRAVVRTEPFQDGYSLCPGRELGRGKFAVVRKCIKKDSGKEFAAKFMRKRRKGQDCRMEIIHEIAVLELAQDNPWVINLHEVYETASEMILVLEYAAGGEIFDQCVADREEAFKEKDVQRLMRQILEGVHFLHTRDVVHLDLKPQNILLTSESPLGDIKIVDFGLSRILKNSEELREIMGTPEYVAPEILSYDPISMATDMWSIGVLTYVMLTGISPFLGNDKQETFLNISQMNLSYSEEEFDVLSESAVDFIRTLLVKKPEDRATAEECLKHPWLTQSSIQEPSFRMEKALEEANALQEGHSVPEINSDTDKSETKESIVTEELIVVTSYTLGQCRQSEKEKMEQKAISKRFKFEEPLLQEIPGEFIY
Protocol: as §1, §2

AURKA = biological target: T3, AURKA (Homo sapiens, UniProt O14965); assay: CETSA-MS, MDA-MB-231 cell lysates; type: binding; conditions: 2 μM and 20 μM
T3 construct: endogenous in cells; host or cells: MDA-MB-231
Protocol: as §1, §2

USF2 = biological target: T4, USF2 (Homo sapiens, UniProt Q15853); assay: CETSA-MS, MDA-MB-231 cell lysates; type: binding; conditions: 2 μM and 20 μM
T4 construct: endogenous in cells; host or cells: MDA-MB-231
T4 sequence (Q15853 whole entry): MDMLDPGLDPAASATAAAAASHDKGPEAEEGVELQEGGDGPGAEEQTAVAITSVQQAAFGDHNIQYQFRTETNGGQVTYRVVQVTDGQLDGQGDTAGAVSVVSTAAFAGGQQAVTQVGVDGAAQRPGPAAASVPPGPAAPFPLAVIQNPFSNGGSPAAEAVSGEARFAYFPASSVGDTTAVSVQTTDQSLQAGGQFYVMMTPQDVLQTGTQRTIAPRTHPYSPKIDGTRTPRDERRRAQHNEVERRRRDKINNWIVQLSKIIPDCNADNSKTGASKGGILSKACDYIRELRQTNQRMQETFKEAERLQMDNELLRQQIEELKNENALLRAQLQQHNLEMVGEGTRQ
Protocol: as §1, §2

TFEB = biological target: T5, TFEB (Homo sapiens, UniProt P19484); assay: CETSA-MS, MDA-MB-231 cell lysates; type: binding; conditions: 2 μM and 20 μM
T5 construct: endogenous in cells; host or cells: MDA-MB-231
T5 sequence (P19484 whole entry): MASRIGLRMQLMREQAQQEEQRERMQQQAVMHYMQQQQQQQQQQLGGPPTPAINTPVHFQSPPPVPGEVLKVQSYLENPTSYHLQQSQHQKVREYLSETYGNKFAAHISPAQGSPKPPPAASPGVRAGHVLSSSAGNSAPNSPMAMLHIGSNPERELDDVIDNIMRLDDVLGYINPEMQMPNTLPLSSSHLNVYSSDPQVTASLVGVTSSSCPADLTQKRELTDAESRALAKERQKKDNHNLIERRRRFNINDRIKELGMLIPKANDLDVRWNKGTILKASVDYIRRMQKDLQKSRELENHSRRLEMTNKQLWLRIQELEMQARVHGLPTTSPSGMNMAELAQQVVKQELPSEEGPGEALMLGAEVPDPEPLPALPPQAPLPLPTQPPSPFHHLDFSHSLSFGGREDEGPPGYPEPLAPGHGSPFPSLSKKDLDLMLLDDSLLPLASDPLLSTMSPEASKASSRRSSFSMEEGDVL
Protocol: as §1, §2

CHEK1 = biological target: T6, CHEK1 (Homo sapiens, UniProt O14757); assay: CETSA-MS, MDA-MB-231 cell lysates; type: binding; conditions: 2 μM and 20 μM
T6 construct: endogenous in cells; host or cells: MDA-MB-231
T6 sequence (O14757 1-476): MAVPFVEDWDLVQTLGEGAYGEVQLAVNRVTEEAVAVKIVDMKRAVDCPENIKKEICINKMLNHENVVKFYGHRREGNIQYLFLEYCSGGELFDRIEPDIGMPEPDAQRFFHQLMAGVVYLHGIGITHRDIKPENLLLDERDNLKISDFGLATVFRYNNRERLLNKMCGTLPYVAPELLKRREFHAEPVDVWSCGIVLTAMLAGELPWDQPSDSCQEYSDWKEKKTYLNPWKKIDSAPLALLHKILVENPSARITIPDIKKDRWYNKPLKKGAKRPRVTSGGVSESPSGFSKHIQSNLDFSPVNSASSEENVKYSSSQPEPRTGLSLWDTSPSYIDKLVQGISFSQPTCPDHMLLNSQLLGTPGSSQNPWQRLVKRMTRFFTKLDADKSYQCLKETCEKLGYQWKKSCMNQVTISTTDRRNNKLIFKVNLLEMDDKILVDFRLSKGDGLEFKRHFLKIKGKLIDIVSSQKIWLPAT
Protocol: as §1, §2

SLK = biological target: T7, SLK (Homo sapiens, UniProt Q9H2G2); assay: CETSA-MS, MDA-MB-231 cell lysates; type: binding; conditions: 2 μM and 20 μM
T7 construct: endogenous in cells; host or cells: MDA-MB-231
Protocol: as §1, §2

ZNF260 = biological target: T8, ZNF260 (Homo sapiens, UniProt Q3ZCT1); assay: CETSA-MS, MDA-MB-231 cell lysates; type: binding; conditions: 2 μM and 20 μM
T8 construct: endogenous in cells; host or cells: MDA-MB-231
T8 sequence (Q3ZCT1 whole entry): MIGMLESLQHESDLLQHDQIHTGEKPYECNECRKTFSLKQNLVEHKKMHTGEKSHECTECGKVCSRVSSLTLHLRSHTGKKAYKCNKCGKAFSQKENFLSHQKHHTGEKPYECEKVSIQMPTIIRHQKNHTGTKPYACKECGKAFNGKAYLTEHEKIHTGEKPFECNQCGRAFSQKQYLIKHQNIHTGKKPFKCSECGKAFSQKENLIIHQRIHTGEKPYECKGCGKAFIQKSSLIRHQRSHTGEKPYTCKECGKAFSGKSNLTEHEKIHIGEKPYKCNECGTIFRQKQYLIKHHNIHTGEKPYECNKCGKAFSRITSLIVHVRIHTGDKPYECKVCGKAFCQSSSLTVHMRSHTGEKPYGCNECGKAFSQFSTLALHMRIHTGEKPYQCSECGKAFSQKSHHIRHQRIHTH
Protocol: as §1, §2

AAK1 = biological target: T9, AAK1 (Homo sapiens, UniProt Q2M2I8); assay: CETSA-MS, MDA-MB-231 cell lysates; type: binding; conditions: 2 μM and 20 μM
T9 construct: endogenous in cells; host or cells: MDA-MB-231
Protocol: as §1, §2

MAPKAPK5 = biological target: T10, MAPKAPK5 (Homo sapiens, UniProt Q8IW41); assay: CETSA-MS, MDA-MB-231 cell lysates; type: binding; conditions: 2 μM and 20 μM
T10 construct: endogenous in cells; host or cells: MDA-MB-231
T10 sequence (Q8IW41 whole entry): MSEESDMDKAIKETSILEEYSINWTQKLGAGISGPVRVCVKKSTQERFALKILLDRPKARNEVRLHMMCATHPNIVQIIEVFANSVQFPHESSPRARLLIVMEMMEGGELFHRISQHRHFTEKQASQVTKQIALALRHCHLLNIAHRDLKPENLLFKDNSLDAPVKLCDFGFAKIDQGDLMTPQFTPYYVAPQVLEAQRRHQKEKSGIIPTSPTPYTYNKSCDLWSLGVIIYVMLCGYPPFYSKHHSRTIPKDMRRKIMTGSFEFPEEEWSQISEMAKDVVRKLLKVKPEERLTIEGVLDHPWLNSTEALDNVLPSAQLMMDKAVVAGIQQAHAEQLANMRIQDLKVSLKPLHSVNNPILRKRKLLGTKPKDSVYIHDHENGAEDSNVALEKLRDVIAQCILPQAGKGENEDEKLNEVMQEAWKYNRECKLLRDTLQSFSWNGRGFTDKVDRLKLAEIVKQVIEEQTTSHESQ
Protocol: as §1, §2

TGFBR2 = biological target: T11, TGFBR2 (Homo sapiens, UniProt P37173); assay: CETSA-MS, MDA-MB-231 cell lysates; type: binding; conditions: 2 μM and 20 μM
T11 construct: endogenous in cells; host or cells: MDA-MB-231
Protocol: as §1, §2

TBK1 = biological target: T12, TBK1 (Homo sapiens, UniProt Q9UHD2); assay: CETSA-MS, MDA-MB-231 cell lysates; type: binding; conditions: 2 μM and 20 μM
T12 construct: endogenous in cells; host or cells: MDA-MB-231
T12 sequence (Q9UHD2 whole entry): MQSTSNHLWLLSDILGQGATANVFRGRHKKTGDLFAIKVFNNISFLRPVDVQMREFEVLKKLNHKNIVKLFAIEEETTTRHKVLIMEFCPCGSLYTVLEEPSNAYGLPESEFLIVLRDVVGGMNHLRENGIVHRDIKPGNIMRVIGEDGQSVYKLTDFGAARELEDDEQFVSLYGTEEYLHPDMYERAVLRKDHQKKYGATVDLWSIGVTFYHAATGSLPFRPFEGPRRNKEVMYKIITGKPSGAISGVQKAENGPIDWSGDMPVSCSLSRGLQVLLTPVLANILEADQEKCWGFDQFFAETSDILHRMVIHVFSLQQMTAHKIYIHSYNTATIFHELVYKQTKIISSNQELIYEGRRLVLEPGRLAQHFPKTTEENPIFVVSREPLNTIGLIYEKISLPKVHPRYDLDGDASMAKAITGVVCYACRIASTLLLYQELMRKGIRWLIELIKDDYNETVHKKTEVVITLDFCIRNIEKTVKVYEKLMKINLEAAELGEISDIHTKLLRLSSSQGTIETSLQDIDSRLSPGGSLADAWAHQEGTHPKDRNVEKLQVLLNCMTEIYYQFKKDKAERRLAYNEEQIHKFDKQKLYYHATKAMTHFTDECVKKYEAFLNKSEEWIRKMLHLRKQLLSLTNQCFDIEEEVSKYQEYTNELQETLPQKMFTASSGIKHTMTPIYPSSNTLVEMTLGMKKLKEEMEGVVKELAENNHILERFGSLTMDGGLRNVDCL
Protocol: as §1, §2

STK17B = biological target: T13, STK17B (Homo sapiens, UniProt O94768); assay: CETSA-MS, MDA-MB-231 cell lysates; type: binding; conditions: 2 μM and 20 μM
T13 construct: endogenous in cells; host or cells: MDA-MB-231
Protocol: as §1, §2

MAP11 = biological target: T14, MAP11 (Homo sapiens, UniProt Q8WVR3); assay: CETSA-MS, MDA-MB-231 cell lysates; type: binding; conditions: 2 μM and 20 μM
T14 construct: endogenous in cells; host or cells: MDA-MB-231
Protocol: as §1, §2

UVSSA = biological target: T15, UVSSA (Homo sapiens, UniProt Q2YD98); assay: CETSA-MS, MDA-MB-231 cell lysates; type: binding; conditions: 2 μM and 20 μM
T15 construct: endogenous in cells; host or cells: MDA-MB-231
T15 sequence (Q2YD98 whole entry): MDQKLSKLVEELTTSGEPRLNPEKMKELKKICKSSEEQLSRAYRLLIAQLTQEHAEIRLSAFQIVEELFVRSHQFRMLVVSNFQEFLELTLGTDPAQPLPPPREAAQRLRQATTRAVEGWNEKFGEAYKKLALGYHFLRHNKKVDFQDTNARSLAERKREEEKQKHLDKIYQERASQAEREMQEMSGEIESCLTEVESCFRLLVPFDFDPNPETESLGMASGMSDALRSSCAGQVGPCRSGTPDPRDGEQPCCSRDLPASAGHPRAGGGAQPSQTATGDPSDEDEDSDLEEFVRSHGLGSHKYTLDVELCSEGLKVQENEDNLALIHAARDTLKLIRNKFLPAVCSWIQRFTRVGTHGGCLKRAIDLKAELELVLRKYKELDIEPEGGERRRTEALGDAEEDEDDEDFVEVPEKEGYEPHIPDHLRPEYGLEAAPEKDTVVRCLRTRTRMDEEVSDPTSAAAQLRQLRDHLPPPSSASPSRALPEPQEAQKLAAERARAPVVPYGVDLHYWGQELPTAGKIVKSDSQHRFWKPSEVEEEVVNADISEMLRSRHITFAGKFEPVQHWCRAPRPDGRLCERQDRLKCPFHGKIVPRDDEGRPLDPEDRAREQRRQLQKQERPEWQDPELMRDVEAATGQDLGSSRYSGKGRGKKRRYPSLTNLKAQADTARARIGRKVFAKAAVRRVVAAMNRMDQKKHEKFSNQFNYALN
Protocol: as §1, §2

CDK2 = biological target: T16, CDK2 (Homo sapiens, UniProt P24941); assay: CETSA-MS, MDA-MB-231 cell lysates; type: binding; conditions: 2 μM and 20 μM
T16 construct: endogenous in cells; host or cells: MDA-MB-231
Protocol: as §1, §2

FKBP8 = biological target: T17, FKBP8 (Homo sapiens, UniProt Q14318); assay: CETSA-MS, MDA-MB-231 cell lysates; type: binding; conditions: 2 μM and 20 μM
T17 construct: endogenous in cells; host or cells: MDA-MB-231
Protocol: as §1, §2

PER3 = biological target: T18, PER3 (Homo sapiens, UniProt P56645); assay: CETSA-MS, MDA-MB-231 cell lysates; type: binding; conditions: 2 μM and 20 μM
T18 construct: endogenous in cells; host or cells: MDA-MB-231
T18 sequence (P56645 whole entry): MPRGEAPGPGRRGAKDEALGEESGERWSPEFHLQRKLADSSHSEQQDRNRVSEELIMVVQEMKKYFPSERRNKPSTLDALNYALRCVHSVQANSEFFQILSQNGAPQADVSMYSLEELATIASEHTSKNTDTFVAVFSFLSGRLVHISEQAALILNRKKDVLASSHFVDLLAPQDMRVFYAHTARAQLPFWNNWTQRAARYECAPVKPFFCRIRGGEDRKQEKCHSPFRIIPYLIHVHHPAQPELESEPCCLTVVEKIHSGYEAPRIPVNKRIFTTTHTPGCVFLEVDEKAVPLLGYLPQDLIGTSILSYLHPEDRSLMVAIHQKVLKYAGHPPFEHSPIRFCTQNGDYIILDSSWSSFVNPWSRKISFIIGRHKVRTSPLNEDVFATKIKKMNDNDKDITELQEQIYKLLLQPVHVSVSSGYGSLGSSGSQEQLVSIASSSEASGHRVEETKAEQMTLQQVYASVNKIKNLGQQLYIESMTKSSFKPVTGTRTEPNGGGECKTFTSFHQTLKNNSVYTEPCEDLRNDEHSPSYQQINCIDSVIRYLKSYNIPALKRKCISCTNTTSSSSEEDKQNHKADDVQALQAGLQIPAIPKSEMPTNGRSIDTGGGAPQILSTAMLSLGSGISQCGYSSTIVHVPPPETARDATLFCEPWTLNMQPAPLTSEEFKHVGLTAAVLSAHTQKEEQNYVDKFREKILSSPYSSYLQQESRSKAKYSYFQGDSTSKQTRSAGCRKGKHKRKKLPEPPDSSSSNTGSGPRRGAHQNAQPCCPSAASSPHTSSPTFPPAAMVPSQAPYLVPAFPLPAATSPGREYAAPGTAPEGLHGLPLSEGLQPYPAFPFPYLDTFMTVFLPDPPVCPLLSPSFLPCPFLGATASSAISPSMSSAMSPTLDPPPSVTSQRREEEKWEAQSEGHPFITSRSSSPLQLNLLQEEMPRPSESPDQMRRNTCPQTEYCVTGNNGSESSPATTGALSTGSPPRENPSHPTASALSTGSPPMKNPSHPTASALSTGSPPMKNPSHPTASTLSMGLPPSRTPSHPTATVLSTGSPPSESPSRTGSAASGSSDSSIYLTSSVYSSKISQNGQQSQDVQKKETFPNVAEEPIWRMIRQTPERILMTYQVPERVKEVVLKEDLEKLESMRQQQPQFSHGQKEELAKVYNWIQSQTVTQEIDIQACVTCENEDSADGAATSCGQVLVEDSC
Protocol: as §1, §2

PyMT cells = assay: MTT cell viability; type: cell-based, mouse; conditions: 24, 48 and 72 hours; Compound 1 2.5, 5, 10 μM; Comparator 1 5 μM
MDA-MB-231 cells = assay: MTT assay, 24 hours; type: cell-based

Q: `CN1CCN(c2ccc(Nc3ncc4cc(C#N)c(=O)n(C5CCCC5)c4n3)cc2)CC1` [Compound 1, 8-cyclopentyl-2-((4-(4-methylpiperazin-1-yl)phenyl)amino)-7-oxo-7,8-dihydropyrido[2,3-d]pyrimidine-6-carbonitrile] was tested. Which CETSA (NUAK1) did it give?
A: NEG

Q: What about the “Group (CETSA-MS thermal shift)” value (STK17A) of the same molecule?
A: Stabilization

Q: What about the “Group (CETSA-MS thermal shift)” value (AURKA) of the same molecule?
A: Stabilization

Q: What about the “Group (CETSA-MS thermal shift)” value (USF2) of the same molecule?
A: Stabilization

Q: And the “Group (CETSA-MS thermal shift)” value (TFEB)?
A: Stabilization

Q: What about the “Group (CETSA-MS thermal shift)” value (CHEK1) of the same molecule?
A: Destabilization

Q: What about the “Group (CETSA-MS thermal shift)” value (SLK) of the same molecule?
A: Stabilization

Q: And the “Group (CETSA-MS thermal shift)” value (ZNF260)?
A: Destabilization

Q: What about the “Group (CETSA-MS thermal shift)” value (AAK1) of the same molecule?
A: Stabilization

Q: What about the “Group (CETSA-MS thermal shift)” value (MAPKAPK5) of the same molecule?
A: Destabilization

Q: And the “Group (CETSA-MS thermal shift)” value (TGFBR2)?
A: Stabilization

Q: And the “Group (CETSA-MS thermal shift)” value (TBK1)?
A: Destabilization

Q: What about the “Group (CETSA-MS thermal shift)” value (STK17B) of the same molecule?
A: Stabilization

Q: What about the “Group (CETSA-MS thermal shift)” value (MAP11) of the same molecule?
A: Stabilization

Q: And the “Group (CETSA-MS thermal shift)” value (UVSSA)?
A: Destabilization

Q: What about the “Group (CETSA-MS thermal shift)” value (CDK2) of the same molecule?
A: Stabilization

Q: And the “Group (CETSA-MS thermal shift)” value (FKBP8)?
A: Stabilization

Q: And the “Group (CETSA-MS thermal shift)” value (PER3)?
A: Stabilization

Q: And the “cell death (MTT cell viability)” value (PyMT cells)?
A: increased cell death relative to DMSO

Q: What about the “cell viability (MTT)” value (MDA-MB-231 cells; 2.5 μM, 5 μM and 10 μM, compared to Comparator 1 and Comparator 2) of the same molecule?
A: decreases cell viability to a greater extent

Q: And the “effect of zVAD-FMK on cell death, MTT assay” value (MDA-MB-231 cells; zVAD-FMK 20 μM (FIG. 25))?
A: unaffected by zVAD-FMK treatment

— patent US20260183295A1, “METHODS AND COMPOSITIONS FOR TREATING CANCER” (Onconova Therapeutics, Inc., priority 2022, published 2026)
